Earlier results on one compound are cited in US20250090476A1, “PHARMACEUTICAL COMPOSITION AND BREXPIPRAZOLE ORALLY SOLUABLE FILM” (WISDOM PHARMACEUTICAL CO., LTD., priority 2022, published 2025).

Turning to `O=c1ccc2ccc(OCCCCN3CCN(c4cccc5sccc45)CC3)cc2[nH]1` [Brexpiprazole], the solubility result was “low”.
